According to ChEMBL document CHEMBL5729675, “Sulfonamide compound or salt thereof” (2023):

These molecules were tested against Ribonucleotide reductase (Homo sapiens, UniProt P23921+Q7LG56) (assay: Human RNR Inhibition Effect: The inhibitory activity against the ribonucleotide reduction reaction (hereinafter referred to as RNR reaction) of the test compound was determined by measuring the formation of deoxycytidine diphosphate (hereinafter referred to as dCDP) from cytidine diphosphate (hereinafter referred to as CDP) by the following method.Human M1 subunit and human M2 subunit (mutant …).
Ribonucleotide reductase, sequence (P23921 whole entry, looked up): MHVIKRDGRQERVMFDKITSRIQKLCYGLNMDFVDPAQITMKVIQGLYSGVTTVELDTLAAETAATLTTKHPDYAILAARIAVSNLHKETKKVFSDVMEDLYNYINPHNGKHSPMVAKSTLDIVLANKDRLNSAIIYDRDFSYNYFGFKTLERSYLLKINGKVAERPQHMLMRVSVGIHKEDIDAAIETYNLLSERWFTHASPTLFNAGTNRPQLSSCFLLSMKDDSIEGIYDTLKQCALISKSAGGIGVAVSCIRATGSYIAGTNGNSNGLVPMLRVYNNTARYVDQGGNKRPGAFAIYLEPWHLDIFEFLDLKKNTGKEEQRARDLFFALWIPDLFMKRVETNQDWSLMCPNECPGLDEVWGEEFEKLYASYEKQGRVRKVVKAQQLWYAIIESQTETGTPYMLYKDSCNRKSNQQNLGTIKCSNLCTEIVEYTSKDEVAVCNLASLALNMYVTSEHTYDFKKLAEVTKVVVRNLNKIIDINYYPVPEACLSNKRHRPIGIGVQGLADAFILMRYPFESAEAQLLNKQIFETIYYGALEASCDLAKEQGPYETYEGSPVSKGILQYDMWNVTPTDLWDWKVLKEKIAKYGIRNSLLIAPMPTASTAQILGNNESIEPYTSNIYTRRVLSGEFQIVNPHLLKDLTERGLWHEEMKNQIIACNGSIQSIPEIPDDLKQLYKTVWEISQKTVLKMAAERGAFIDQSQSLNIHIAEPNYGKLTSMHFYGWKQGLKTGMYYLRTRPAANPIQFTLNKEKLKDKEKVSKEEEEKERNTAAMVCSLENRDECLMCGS
Ribonucleotide reductase, sequence (Q7LG56 whole entry, looked up): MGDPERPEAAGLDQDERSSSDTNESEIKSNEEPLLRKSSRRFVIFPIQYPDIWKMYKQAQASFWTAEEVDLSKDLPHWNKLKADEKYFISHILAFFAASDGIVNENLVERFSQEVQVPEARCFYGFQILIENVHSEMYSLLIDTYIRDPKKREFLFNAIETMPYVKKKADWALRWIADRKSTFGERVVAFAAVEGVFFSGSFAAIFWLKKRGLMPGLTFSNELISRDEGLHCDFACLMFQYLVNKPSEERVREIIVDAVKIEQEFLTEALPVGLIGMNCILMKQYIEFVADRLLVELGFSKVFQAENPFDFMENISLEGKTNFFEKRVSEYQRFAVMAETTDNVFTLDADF

Structure (SMILES) | IC50 [nM]
Cc1ccc(F)c([C@@H](C)[C@H](NS(=O)(=O)c2ccc(Cl)c3c2OCCN3)c2n[nH]c(=O)o2)c1C | 100
COc1cc(Cl)ccc1S(=O)(=O)N[C@H](c1noc(=O)[nH]1)[C@H](C)c1c(F)ccc(C)c1C | 250
CC(=O)N1CCOc2c(S(=O)(=O)N[C@H](c3n[nH]c(=O)o3)[C@H](C)c3cccc(C)c3C)ccc(Cl)c21 | 560
COc1cc(Cl)ccc1S(=O)(=O)N[C@H](c1n[nH]c(=O)o1)[C@H](C)c1c(F)ccc(-c2cnn(C)c2)c1C | 90
COc1cc(Cl)ccc1S(=O)(=O)N[C@H](c1n[nH]c(=O)o1)[C@H](C)c1c(F)ccc(-c2ccc(Cl)cc2)c1C | 490
COc1cc(Cl)ccc1S(=O)(=O)N[C@H](c1n[nH]c(=O)o1)[C@H](C)c1c(F)ccc(-c2cc(F)cc(F)c2)c1C | 940
Cc1ccc(F)c([C@@H](C)[C@H](NS(=O)(=O)c2c(F)cc(Cl)cc2F)c2n[nH]c(=O)o2)c1C | 270
Cc1c(Cl)ccc(F)c1[C@@H](C)[C@H](NS(=O)(=O)c1ccc(Br)cc1C(N)=O)c1n[nH]c(=O)o1 | 150
Cc1ccc(F)c([C@@H](C)[C@H](NS(=O)(=O)c2cc(C(C)(C)O)c(Cl)cc2C(N)=O)c2n[nH]c(=O)o2)c1C | 60
COc1ncc(-c2ccc(F)c([C@@H](C)[C@H](NS(=O)(=O)c3ccc(Cl)cc3OC)c3n[nH]c(=O)o3)c2C)cn1 | 280
Cc1ccc(F)c([C@@H](C)[C@H](NS(=O)(=O)c2ncc(Br)cc2C(N)=O)c2n[nH]c(=O)o2)c1C | 20
Cc1c(Cl)ccc(F)c1[C@@H](C)[C@H](NS(=O)(=O)c1ccc(Cl)cc1C(N)=O)c1n[nH]c(=O)o1 | 250
CCN1CCOc2c(S(=O)(=O)N[C@H](c3n[nH]c(=O)o3)[C@H](C)c3c(F)ccc(C)c3C)ccc(Cl)c21 | 110
Cc1ccc(F)c([C@@H](C)[C@H](NS(=O)(=O)c2ccc(Br)cc2OC(F)(F)F)c2n[nH]c(=O)o2)c1C | 100
Cc1ccc(F)c([C@@H](C)[C@H](NS(=O)(=O)c2ccc(Cl)c3cccnc23)c2n[nH]c(=O)o2)c1C | 110
CC(O)c1c(Cl)ccc(S(=O)(=O)N[C@H](c2n[nH]c(=O)o2)[C@H](C)c2cccc3c2CCC3)c1Cl (some centres undefined) | 170
C[C@H](c1cc(F)cc2ccccc12)[C@H](NS(=O)(=O)c1ccc(Cl)cc1C(N)=O)c1n[nH]c(=O)o1 | 600
Cc1ccc(F)c([C@@H](C)[C@H](NS(=O)(=O)c2ccc(Cl)cc2C(=O)N(C)C)c2n[nH]c(=O)o2)c1C | 500
COc1c(S(=O)(=O)N[C@H](c2n[nH]c(=O)o2)[C@H](C)c2c(F)ccc3ccccc23)ccc(Cl)c1C(C)O (some centres undefined) | 80
Cc1ccc(F)c([C@@H](C)[C@H](NS(=O)(=O)c2cccc3[nH]ccc23)c2n[nH]c(=O)o2)c1C | 710
Cc1ccc(F)c([C@@H](C)[C@H](NS(=O)(=O)c2ccc(Cl)cc2C(=O)NO)c2n[nH]c(=O)o2)c1C | 70
Cc1ccc(F)c([C@@H](C)[C@H](NS(=O)(=O)c2ccc3[nH]c(=O)c(=O)[nH]c3c2)c2n[nH]c(=O)o2)c1C | 820
Cc1ccc(F)c([C@@H](C)[C@H](NS(=O)(=O)c2cc(C(=O)N(C)C)ccc2C(N)=O)c2n[nH]c(=O)o2)c1C | 140
Cc1ccc(F)c([C@@H](C)[C@H](NS(=O)(=O)c2cccc3c2OCCN3)c2n[nH]c(=O)o2)c1C | 420
C[C@H](c1cccc2c1CCCC2)[C@H](NS(=O)(=O)c1ccc(Cl)cn1)c1n[nH]c(=O)o1 | 770

Structure (SMILES) | IC50 [nM]
COC(=O)c1cc(Cl)c(N)cc1S(=O)(=O)N[C@H](c1n[nH]c(=O)o1)[C@H](C)c1c(F)ccc(C)c1C | 660
COc1cc(Cl)ccc1S(=O)(=O)N[C@H](c1n[nH]c(=O)o1)[C@H](C)c1c(F)ccc(-c2cnc3c(c2)OCCN3C)c1C | 220
Cc1c(-c2cnn(C)c2)ccc(F)c1[C@@H](C)[C@H](NS(=O)(=O)c1ccc(Cl)cc1C(N)=O)c1n[nH]c(=O)o1 | 170
COc1cc(C#N)ccc1S(=O)(=O)N[C@H](c1n[nH]c(=O)o1)[C@H](C)c1c(F)ccc(C)c1C | 90
Cc1ccc(F)c([C@@H](C)[C@H](NS(=O)(=O)c2cc(C(=O)N(C)C)c(Cl)cc2C(N)=O)c2n[nH]c(=O)o2)c1C | 40
COc1cc(Cl)ccc1S(=O)(=O)N[C@H](c1n[nH]c(=O)o1)[C@H](C)c1c(F)ccc(-c2cnn(C(F)F)c2)c1C | 160
Cc1ccc(F)c([C@@H](C)[C@H](NS(=O)(=O)c2ccc(Cl)cc2C(=O)N2CCC2)c2n[nH]c(=O)o2)c1C | 410
COc1cc(Cl)ccc1S(=O)(=O)N[C@H](c1n[nH]c(=O)o1)[C@H](C)c1c(F)ccc2ccccc12 | 200
COc1ccc(-c2cc(S(=O)(=O)N[C@H](c3n[nH]c(=O)o3)[C@H](C)c3c(F)ccc(C)c3C)ccc2Cl)cc1 | 720
Cc1cccc2cccc([C@@H](C)[C@H](NS(=O)(=O)c3ccc(Cl)c4c3OCCC4O)c3n[nH]c(=O)o3)c12 (some centres undefined) | 230
Cc1ccc(F)c([C@@H](C)[C@@H](c2n[nH]c(=O)o2)N(C)S(=O)(=O)c2ccc(Cl)cc2C(N)=O)c1C | 80
C[C@H](c1cccc2c1CCC2)[C@H](NS(=O)(=O)c1ccc(Br)cc1F)c1n[nH]c(=O)o1 | 990
Cc1ccc(F)c([C@@H](C)[C@H](NS(=O)(=O)c2ccc(Cl)c(C(N)=O)n2)c2n[nH]c(=O)o2)c1C | 100
Cc1ccc(S(=O)(=O)N[C@H](c2n[nH]c(=O)o2)[C@H](C)c2c(F)ccc(C)c2C)c(C(N)=O)c1 | 140
Cc1ccc(F)c([C@@H](C)[C@H](NS(=O)(=O)c2ccc(F)c(S(C)(=O)=O)c2)c2n[nH]c(=O)o2)c1C | 190
Cc1ccc(F)c([C@@H](C)[C@H](NS(=O)(=O)c2c(F)cc(Cl)cc2C(N)=O)c2n[nH]c(=O)o2)c1C | 140
COc1cc(Cl)ccc1S(=O)(=O)N[C@H](c1n[nH]c(=O)o1)[C@H](C)c1c(F)ccc(-c2cccnc2)c1C | 340
Cc1ccc(F)c([C@@H](C)[C@H](NS(=O)(=O)c2ccc(Cl)c(S(N)(=O)=O)c2)c2n[nH]c(=O)o2)c1C | 810
Cc1ccc(F)c([C@@H](C)[C@H](NS(=O)(=O)c2ccc3c(c2)C(C)(O)CCO3)c2n[nH]c(=O)o2)c1C (some centres undefined) | 180
Cc1ccc(F)c([C@@H](C)[C@H](NS(=O)(=O)c2ccc(F)c(C(C)(C)O)c2F)c2n[nH]c(=O)o2)c1C | 90
Cc1cccc([C@@H](C)[C@H](NS(=O)(=O)c2ccc(Cl)cc2C(N)=O)c2n[nH]c(=O)o2)c1C | 300
CC(=O)Nc1cc(Cl)ccc1S(=O)(=O)N[C@H](c1n[nH]c(=O)o1)[C@H](C)c1c(F)ccc(C)c1C | 440
Cc1ccc(F)c([C@@H](C)[C@H](NS(=O)(=O)c2ccc3c(c2)CC(=O)N3)c2n[nH]c(=O)o2)c1C | 740
C[C@H](c1cccc2c1CCC2)[C@H](NS(=O)(=O)c1ccc(Br)c(C(C)(C)O)c1)c1n[nH]c(=O)o1 | 640
Cc1ccc(F)c([C@@H](C)[C@H](NS(=O)(=O)c2ccc3c(c2)C(C)(O)CCC3)c2n[nH]c(=O)o2)c1C (some centres undefined) | 360

Structure (SMILES) | IC50 [nM]
Cc1ccc(F)c([C@@H](C)[C@H](NS(=O)(=O)c2ccc(Cl)c3c2OCC(=O)N3CC(F)F)c2n[nH]c(=O)o2)c1C | 130
Cc1ccc(F)c([C@@H](C)[C@H](NS(=O)(=O)c2ccc(Cl)c(C(C)(C)O)n2)c2n[nH]c(=O)o2)c1C | 90
COC(=O)c1cc(Cl)cnc1S(=O)(=O)N[C@H](c1n[nH]c(=O)o1)[C@H](C)c1c(F)ccc(C)c1C | 340
C[C@H](c1c(F)ccc2ccccc12)[C@H](NS(=O)(=O)c1ccc(Br)cc1C(N)=O)c1n[nH]c(=O)o1 | 100
COc1cc(S(=O)(=O)N[C@H](c2n[nH]c(=O)o2)[C@H](C)c2c(F)ccc(C)c2C)c(C(N)=O)cc1Cl | 100
Cc1ccc(F)c([C@@H](C)[C@H](NS(=O)(=O)c2ccc(Cl)c(C(=O)N3CCCC3)n2)c2n[nH]c(=O)o2)c1C | 60
Cc1ccc(F)c([C@@H](C)[C@H](NS(=O)(=O)c2cc(OCC(F)F)ccc2C(N)=O)c2n[nH]c(=O)o2)c1C | 70
CC(=O)OC1(C)CCOc2c(S(=O)(=O)N[C@H](c3n[nH]c(=O)o3)[C@H](C)c3c(F)ccc(Cl)c3C)ccc(Cl)c21 (some centres undefined) | 300
COc1cc(Cl)ccc1S(=O)(=O)N[C@H](c1n[nH]c(=O)o1)[C@H](C)c1c(F)ccc(-c2cn(C)nc2C)c1C | 280
COC(=O)c1c(F)ccc(S(=O)(=O)N[C@H](c2n[nH]c(=O)o2)[C@H](C)c2c(F)ccc(C)c2C)c1F | 170
CC(=O)OC1(C(F)(F)F)CCOc2c(S(=O)(=O)N[C@H](c3n[nH]c(=O)o3)[C@H](C)c3c(F)ccc(C)c3C)ccc(Cl)c21 (some centres undefined) | 110
COc1c(S(=O)(=O)N[C@H](c2n[nH]c(=O)o2)[C@H](C)c2c(F)ccc(C)c2C)ccc(Cl)c1C(C)=O | 110
COc1cc(Cl)ccc1S(=O)(=O)N[C@H](c1n[nH]c(=O)o1)[C@H](C)c1c(F)ccc(-c2c[nH]nc2C)c1C | 180
Cc1ccc(F)c([C@@H](C)[C@H](NS(=O)(=O)c2cc3c(cc2C(=O)O)OCCO3)c2n[nH]c(=O)o2)c1C | 790
Cc1ccc(F)c([C@@H](C)[C@H](NS(=O)(=O)c2ncc(Br)cc2C(=O)O)c2n[nH]c(=O)o2)c1C | 990
Cc1ccc(F)c([C@@H](C)[C@H](NS(=O)(=O)c2c(F)cc(Cl)cc2C(=O)O)c2n[nH]c(=O)o2)c1C | 270
Cc1ccc(F)c([C@@H](C)[C@H](NS(=O)(=O)c2ccc(C#N)cc2)c2n[nH]c(=O)o2)c1C | 410
Cc1ccc(F)c([C@@H](C)[C@H](NS(=O)(=O)c2cccc3c2CCNC3)c2n[nH]c(=O)o2)c1C | 760
COC(=O)c1cc(S(=O)(=O)N[C@H](c2n[nH]c(=S)o2)[C@H](C)c2cccc3c2CCC3)ccc1Cl | 830
Cc1ccc(F)c([C@@H](C)[C@H](NS(=O)(=O)c2ccc(Cl)c3c2OCCC3N)c2n[nH]c(=O)o2)c1C (some centres undefined) | 130
Cc1ccc(F)c([C@@H](C)[C@H](NS(=O)(=O)c2ccc(C3CC3)cc2C(N)=O)c2n[nH]c(=O)o2)c1C | 130
COc1cc(N)ccc1S(=O)(=O)N[C@H](c1n[nH]c(=O)o1)[C@H](C)c1cccc2cccc(C)c12 | 510
Cc1ccc(F)c([C@@H](C)[C@H](NS(=O)(=O)c2cc(C(=O)O)c(Cl)cc2C(N)=O)c2n[nH]c(=O)o2)c1C | 190
C[C@H](c1c(F)ccc2ccccc12)[C@H](NS(=O)(=O)c1ccc(Cl)c2c1OCCC2F)c1n[nH]c(=O)o1 (some centres undefined) | 160
